One data set deals with MCF7. Kind of data set: cells. Particulars: Homo sapiens, MCF7, 96 h.
Data set [1] is described as follows: Clearance in rat liver microsomes. Format: ADME, Microsome. For orientation: Liver microsomes are vesicles of endoplasmic reticulum, rich in cytochrome P450 enzymes.
Data set [2] deals with Phosphatidylinositol 4,5-bisphosphate 3-kinase catalytic subunit alpha isoform (Homo sapiens, UniProt P42336). Description: Inhibition of GST-tagged human recombinant PI3K-p110alpha extracted from baculovirus-infected Sf9 insect cells incubated for 1 hr by microbeta counter analysis.
Phosphatidylinositol 4,5-bisphosphate 3-kinase catalytic subunit alpha isoform, sequence (P42336 whole entry, canonical isoform): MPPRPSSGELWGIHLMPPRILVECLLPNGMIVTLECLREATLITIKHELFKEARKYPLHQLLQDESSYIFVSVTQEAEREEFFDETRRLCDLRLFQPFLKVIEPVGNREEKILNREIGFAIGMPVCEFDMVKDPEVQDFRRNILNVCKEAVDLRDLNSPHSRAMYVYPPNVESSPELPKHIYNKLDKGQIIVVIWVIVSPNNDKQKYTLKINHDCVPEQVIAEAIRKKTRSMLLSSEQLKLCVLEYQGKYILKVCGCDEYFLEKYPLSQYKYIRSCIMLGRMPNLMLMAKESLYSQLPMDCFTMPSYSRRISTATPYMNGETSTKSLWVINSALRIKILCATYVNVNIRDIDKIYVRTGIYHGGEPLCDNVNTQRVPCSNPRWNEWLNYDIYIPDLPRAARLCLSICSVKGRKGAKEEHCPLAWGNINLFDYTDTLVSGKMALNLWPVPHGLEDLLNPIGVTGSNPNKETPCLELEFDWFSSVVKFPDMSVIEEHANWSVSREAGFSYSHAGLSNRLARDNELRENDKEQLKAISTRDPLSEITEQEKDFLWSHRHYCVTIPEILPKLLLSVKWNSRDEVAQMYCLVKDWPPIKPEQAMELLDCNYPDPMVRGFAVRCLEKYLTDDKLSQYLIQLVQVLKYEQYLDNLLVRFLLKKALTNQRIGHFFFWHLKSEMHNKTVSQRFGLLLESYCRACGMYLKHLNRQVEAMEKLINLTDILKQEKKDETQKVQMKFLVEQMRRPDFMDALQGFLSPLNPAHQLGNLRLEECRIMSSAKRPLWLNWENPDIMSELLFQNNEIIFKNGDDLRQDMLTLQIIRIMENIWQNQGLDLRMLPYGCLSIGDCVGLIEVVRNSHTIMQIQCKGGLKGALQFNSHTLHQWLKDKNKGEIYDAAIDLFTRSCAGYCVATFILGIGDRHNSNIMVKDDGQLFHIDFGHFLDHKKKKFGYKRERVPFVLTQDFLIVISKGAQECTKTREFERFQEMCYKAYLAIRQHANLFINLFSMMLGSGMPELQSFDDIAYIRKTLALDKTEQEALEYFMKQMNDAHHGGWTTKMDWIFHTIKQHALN
Another data set has as its target CYP450 (Homo sapiens, UniProt P04798+P05177+P05181+P08684+P10632+P10635+P11509+P11712+P13584+P20813+P20815+P20853+P24462+P24903+P33260+P33261+P51589+P78329+P98187+Q02928+Q08477+Q16678+Q16696+Q5TCH4+Q6VVX0+Q7Z449+Q8TAV3+Q96SQ9+Q9HB55). Description: Inhibition of CYP450 (unknown origin). The format is ADME, protein assay.
A short description of data set [3]: Oral bioavailability in mouse plasma at 50 mg/kg by LC-MS/MS analysis. Format: ADME, organism-based.
Data set [4] can be described thus: Clearance in mouse at 1 mg/kg, iv. Format: ADME, organism-based. To be noted: in vivo.
The nature of data set [5]: Cmax in mouse plasma at 5 mg/kg, po. Format: ADME, organism-based.
Data set [6] can be described thus: Plasma protein binding in mouse. The format is ADME, cell-free. To be noted: read-out: PPB (converted).
Data set [7] in a line: Cmax in mouse plasma at 50 mg/kg, po. The format is ADME, organism-based.
The nature of data set [8]: Volume of distribution at steady state in mouse at 1 mg/kg, iv. Format: ADME, organism-based. To be noted: in vivo, read-out: Vdss.
Data set [9] in a line: AUC in mouse plasma at 5 mg/kg, po. Format: ADME, organism-based. To be noted: in vivo.
Data set [10] in a line: Oral bioavailability in mouse plasma at 5 mg/kg by LC-MS/MS analysis. The format is ADME, organism-based.
The nature of data set [11]: AUC in mouse plasma at 50 mg/kg, po. Format: ADME, organism-based. Particulars: in vivo.
Data set [12] is described as follows: Cmax in mouse at 1 mg/kg, iv. Format: ADME, organism-based. Particulars: in vivo.
Data set [13] is described as follows: Cmax in rat at 3.4 mg/kg, po. The format is ADME, organism-based. Particulars: in vivo.
Data set [14] in a line: Intrinsic clearance in rat liver microsomes. The format is ADME, Microsome. To be noted: read-out: CLH (converted).
Data set [15] in a line: Oral bioavailability in human. Format: ADME, organism-based. Particulars: in vivo.
Data set [16] can be described thus: Metabolic stability in mouse liver microsomes assessed as half life. Format: ADME, Microsome.
Data set [17] is described as follows: Half life in monkey. The format is ADME, Macaca mulatta. To be noted: rhesus monkey, in vivo.
A further data set has as its target Cytochrome P450 3A4 (Homo sapiens, UniProt P08684). Description: Inhibition of CYP3A4 (unknown origin). The format is ADME.
A short description of data set [18]: Oral bioavailability in Dog. The format is ADME, organism-based, Canis lupus familiaris. To be noted: in vivo.
Data set [19] can be described thus: Oral bioavailability in mouse. The format is ADME, organism-based. To be noted: in vivo.
Data set [20] is described as follows: Oral bioavailability in mouse at 1 mg/kg. Format: ADME, organism-based. Particulars: in vivo.
Data set [21] in a line: Oral bioavailability in rat at 1 mg/kg. The format is ADME, organism-based. Particulars: in vivo.
A short description of data set [22]: Half life in SCID mouse at 3 mg/kg, po. Format: ADME, organism-based. Particulars: in vivo.
Data set [23] in a line: Oral bioavailability in mouse at 3 mg/kg by LC-MS/MS analysis. Format: ADME, organism-based. To be noted: in vivo.
The nature of data set [24]: Oral bioavailability in rat at 3 mg/kg by LC-MS/MS analysis. Format: ADME, organism-based. To be noted: in vivo.
Data set [25] in a line: AUC (0 to t) in SCID mouse at 3 mg/kg, iv. Format: ADME, organism-based. Particulars: in vivo.
A short description of data set [26]: Volume of distribution at steady state in mouse at 3 mg/kg, iv. Format: ADME, organism-based. Particulars: in vivo.
Data set [27] can be described thus: Oral bioavailability in Beagle dog at 3 mg/kg by LC-MS/MS analysis. Format: ADME, organism-based, Canis lupus familiaris. Particulars: in vivo.
A short description of data set [28]: Cmax in SCID mouse at 3 mg/kg, iv measured upto 24 hrs by LC/MS-MS analysis. Particulars: in vivo. The format is ADME, organism-based.

This note sets out measurements from ChEMBL document CHEMBL6071150, “From lab to clinic: The discovery and optimization journey of PI3K inhibitors” (Eur J Med Chem, 2024).

The structures appear in SMILES notation. Bounds are passed on as bounds.

The IC50 is the concentration that gives 50% inhibition. One may read the bioavailability as dose-corrected exposure relative to a reference, in per cent. A word on the clearance: it is the volume of plasma or blood freed of the substance per unit of time. In general, Cmax refers to the maximum level reached in the sampled fluid or tissue. As usually defined, the AUC is concentration integrated over time. As usually defined, the half-life is the time in which the quantity being followed falls by half. By Vdss is commonly meant the apparent volume that relates the amount in the body to the concentration in plasma or blood.

Cytochrome P450 3A4, sequence (P08684 whole entry): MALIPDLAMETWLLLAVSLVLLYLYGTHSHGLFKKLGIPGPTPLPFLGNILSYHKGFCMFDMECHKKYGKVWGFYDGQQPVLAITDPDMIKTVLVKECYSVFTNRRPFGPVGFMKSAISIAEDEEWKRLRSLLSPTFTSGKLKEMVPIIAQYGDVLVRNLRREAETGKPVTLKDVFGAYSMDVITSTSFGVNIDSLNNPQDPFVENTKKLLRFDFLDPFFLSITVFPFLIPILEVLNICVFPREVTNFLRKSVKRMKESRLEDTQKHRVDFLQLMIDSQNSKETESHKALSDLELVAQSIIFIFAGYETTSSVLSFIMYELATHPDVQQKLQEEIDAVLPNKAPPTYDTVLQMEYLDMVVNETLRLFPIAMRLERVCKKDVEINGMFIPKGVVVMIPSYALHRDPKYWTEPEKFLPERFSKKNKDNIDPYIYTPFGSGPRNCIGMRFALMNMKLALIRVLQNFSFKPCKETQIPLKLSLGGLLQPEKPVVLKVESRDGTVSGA

For the molecule `Cc1c(CN2CCN(C(=O)[C@@H](C)O)CC2)sc2c(N3CCOCC3)nc(-c3cnc(N)nc3)nc12`, the midpoint of inhibition in the data set on MCF7, the IC50, lay at 356 nM.
As for `Cc1nc(NC(=O)N2CCC[C@H]2C(N)=O)sc1-c1ccnc(Nc2ccccc2C(C)(C)C)n1`, in data set [1], the CLH amounted to 62 µL/min/µg. Moreover, the concentration for half-maximal inhibition (IC50) in [2] was 7.5 nM; at CYP450, > 10000 nM.
Turning to `C[C@H](NC(=O)c1c(N)ccc2cccnc12)c1cc2cccc(Cl)c2c(=O)n1-c1ccccc1`, the bioavailability in data set [3] was determined as 66%; in data set [10], 56%. For the same molecule, the clearance in data set [4] is 9.2 mL/min/kg. The Cmax is 2000 nM in data set [5] and 24000 nM in data set [7]. In addition, in data set [6], the fraction unbound is 0.29. Further, in [8], the Vd was 1.7 L/kg. The AUC in data set [9] worked out at 10 µM·h; in data set [11] it was 121 µM·h.
For `Cc1nc(NC(=O)N2CCC[C@H]2C(N)=O)sc1-c1ccnc(C(C)(C)C(F)(F)F)c1` [ALPELISIB], the values for the maximum concentration (Cmax) in [12] and in data set [13] were 520 nM and 190 nM, respectively. In [1], this molecule came in with a CLH of 29 µL/min/µg.
As for `C[C@H](Nc1ncnc2[nH]cnc12)c1cc2ccc(F)cc2nc1-c1ccccn1` [AMG-319], in data set [14], the CLint scaled was 5.67 mL/min/kg. In data set [15], this molecule came in with a bioavailability of 54%.
Molecule `Cc1c(CN2CCN(C(=O)[C@H](C)O)CC2)sc2c(N3CCOCC3)nc(-c3cnc(N)nc3)nc12` [APITOLISIB] yielded an IC50 in the data set with MCF7 of 255 nM.
`C[C@H](NC(=O)c1c(N)nn2cccnc12)c1cc2cccc(C#Cc3cnn(C)c3)c2c(=O)n1-c1ccccc1` [EGANELISIB]: the half-life in [16] is > 6 h; in [17], 4.3 h. In addition, the 50% inhibitory concentration (IC50) at Cytochrome P450 3A4 was > 20000 nM.
For `COc1ncc(-c2ccc3nccc(-c4ccnnc4)c3c2)cc1NS(=O)(=O)c1ccc(F)cc1F` [OMIPALISIB], the figures for the bioavailability in [18] and in data set [19] were 80% and 100%, respectively.
As for `CC1(C)OCCn2c1nc1c(N3CCOCC3)nc(-c3cnc(N)nc3)nc12` [PAXALISIB], the bioavailability in data set [20] was 75%; in [21] it was 77%.
Molecule `C[C@H]1Cc2ccccc2N1C(=O)Cc1nc(N2CCOCC2)cc(=O)[nH]1` [SAR-260301] had a half-life in data set [22] of 1.4 h. The bioavailability worked out at 30% in data set [23], 70% in [24] and 67% in [27]. Besides, the AUCt in data set [25] was 600 h/ng/mL. Further, the Vdss in data set [26] amounted to 1 L/kg. In data set [28], this molecule gave a Cmax of 1870 ng/mL.
